Patent US20250059610A1, “METHODS OF TREATING TUMOR” (priority 2017, published 2025)

Columns and labels:
[1] = system: stage IV or recurrent NSCLC; assay: Multi-part phase 3 study of first-line nivolumab plus ipilimumab versus chemotherapy: efficacy; format: in vivo, human
Text: Patients had chemotherapy-naive, stage IV or recurrent NSCLC.
Adult patients with PD-L1-histologically confirmed squamous or nonsquamous stage IV/recurrent NSCLC and Eastern Cooperative Oncology Group (ECOG) performance status (Oken M. M., et al. Am J Clin Oncol 5:649-55 (1982)) of 0 or 1 who had received no prior systemic anticancer therapy as primary therapy for advanced or metastatic disease were eligible for the study. All patients underwent imaging to screen for brain metastases. Patients with known EGFR mutations or ALK translocations sensitive to targeted therapy, an autoimmune disease, or untreated central nervous system metastases were excluded.
All treatments continued until disease progression, unacceptable toxicity, or completion per protocol (up to 2 years for immunotherapy). Crossover between treatment arms within the study was not permitted.
Part 1 of this study had two co-primary endpoints.
Hazard ratios of PFS with associated two-sided confidence intervals were estimated using an unstratified Cox proportional hazard model, with treatment group as a single covariate. A multivariate analysis was prespecified in patients with TMB≥10 mutations/Mb to assess the influence of known prognostic baseline factors on PFS. […] Survival curves were estimated using Kaplan-Meier methodology.

[2] = monotherapy, every two weeks; cited from earlier work
[3] = biological target: T1, PD-1 (Homo sapiens, UniProt Q15116); details: across all doses, 0.3 mg/kg to 10 mg/kg; cited from earlier work
T1 construct: PD-1 occupancy appears to be dose-independent in this dose range

[4] = system: recurrent small cell lung cancer (SCLC); assay: Clinical trial of nivolumab alone or with ipilimumab in SCLC, exploratory TMB analysis; format: in vivo, human
Text: Subjects were selects who had previously been diagnosed with SCLC, and who had previously received at least one prior platinum-containing regimen (FIG. 23).
The primary objective was to measure the objective response rate (ORR) by per RECIST v1.1. Secondary objectives included monitoring safety, overall survival (OS), progression free survival (PFS), and duration of response (DOR). Prespecified exploratory objectives included biomarker analysis and health status using the EQ-5D instrument.
TMB was determined by whole exome sequencing, using an Illumina HiSeq 2500 using 2×100-bp paired-end reads, and calculated as the total number of nonsynonymous missense mutations in the tumor. For exploratory analyses, patients were divided into 3 subgroups based on TMB tertile.

[5] = system: NSCLC; details: cited from earlier work
[6] = system: metastatic or surgically unresectable urothelial carcinoma (UC); assay: Single-arm phase II study of nivolumab (CheckMate 275), TMB analysis; format: in vivo, human
Procedure: Tumor DNA from pretreatment archival tumor tissue and matched whole blood samples was profiled by whole exome sequencing. TMB was defined as the total number of missense somatic mutations per tumor, and was evaluated as a continuous variable and by tertiles (missense count: high 167, medium 85-166, low <85). Cox models were used to explore the association between TMB and progression-free survival (PFS) and overall survival (OS); and logistic regression for objective response rate (ORR). Tumor PD-ligand 1 (PD-L1) expression was assessed by Dako PD-L1 immunohistochemistry 28-8 assay and was categorized as <1%.

[7] = Phase 3 study of first-line nivolumab versus platinum-based chemotherapy: safety (adverse events)
Procedure: Maintenance pemetrexed was allowed in patients with nonsquamous NSCLC who had stable disease or response after cycle 4. […] Concomitant systemic corticosteroid treatment (<3-week courses) was allowed for non-autoimmune conditions, including but not limited to treatment-related adverse events (AEs) with a potential immunologic cause.
Tumor response was assessed every 6 weeks until week 48 and every 12 weeks thereafter. Safety assessments included the recording of AEs, graded according to the National Cancer Institute Common Terminology Criteria for Adverse Events, version 4.0.

[8] = 10 patients with ≥5% PD-L1 expression, monotherapy cohort

T1 sequence (Q15116 25-288): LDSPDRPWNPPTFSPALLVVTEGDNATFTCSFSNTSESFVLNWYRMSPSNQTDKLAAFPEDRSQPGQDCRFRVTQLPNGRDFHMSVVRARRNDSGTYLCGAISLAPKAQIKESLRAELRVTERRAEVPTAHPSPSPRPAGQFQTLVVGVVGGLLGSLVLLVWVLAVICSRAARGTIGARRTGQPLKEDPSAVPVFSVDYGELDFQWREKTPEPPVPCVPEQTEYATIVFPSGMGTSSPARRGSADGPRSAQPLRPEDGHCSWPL

For Nivolumab, the “median PFS” value ([1]; TMB≥10 mutations/Mb and ≥1% PD-L1 expression) is given as 4.2 months, the “median PFS” value ([1]; TMB≥13 mutations/Mb and ≥1% PD-L1 expression) is given as 4.2 months and the “maximum tolerated dose (MTD), not reached up to” value [2] is given as greater than 10 mg/kg. For the same substance, the “mean PD-1 occupancy rate” value [3] was 85%, the “mean plateau PD-1 occupancy” value [3] was 72% and the ORR ([4]; ITT patients) was 11.4%. For the same substance, the ORR ([4]; TMB-evaluable patients) was 11.3%, the ORR ([4]; high TMB) was “about 21.3%” and the “OS at 1 year” value ([4]; high TMB) was 35.2%. The “PFS at 1 year” value ([4]; high TMB) was 21.2%, the “average PFS” value ([4]; high TMB) was “about 1.4%” and the “median OS” value ([4]; high TMB) was “about 5.4%”. The “patients with overall survival over 2 years” value ([4]; initial results of the SCLC trial) was 14%, the ORR ([4]; low TMB) was “about 4.8%” and the “OS at 1 year” value ([4]; low TMB) was 22.1%. The “average PFS” value ([4]; low TMB) was “about 1.3%”, the “median OS” value ([4]; low TMB) was “about 3.1%” and the ORR ([4]; medium TMB) was “about 6.8%”. The “OS at 1 year” value ([4]; medium TMB) was “about 26.0%”, the “PFS at 1 year” value ([4]; medium TMB) was 3.15% and the “average PFS” value ([4]; medium TMB) was “about 1.3%”. For the same substance, the “median OS” value ([4]; medium TMB) was “about 3.9%”, the “PFS rate at 24 weeks” value [5, 8] was 70% and the “median PFS” value [5, 8] was 10.6 months. The “objective response rate (ORR)” value [5, 8] was 50%, the ORR ([5]; patients with ≥1% PD-L1 expression) was 28% and the “OS, median” value ([6]; All Pts) was 8.57 months. For the same substance, the “PFS, median” value ([6]; All Pts) was 2.00 month, the ORR ([6]; All Pts (N 270)) was 20.0% and the ORR ([6]; All Pts, PD-L1 1%) was 25.0%. The “OS, median” value ([6]; All Pts, PD-L1 1%) was 11.63 months, the “PFS, median” value ([6]; All Pts, PD-L1 1%) was 3.53 month and the ORR ([6]; All Pts, PD-L1 <1%) was 15.8%. The “OS, median” value ([6]; All Pts, PD-L1 <1%) was 5.95 months, the “PFS, median” value ([6]; All Pts, PD-L1 <1%) was 1.87 month and the ORR ([6]; TMB High) was 31.9%. For the same substance, the “OS, median” value ([6]; TMB High) was 11.63 months, the “PFS, median” value ([6]; TMB High) was 3.02 month and the ORR ([6]; TMB High, PD-L1 1%) was 33.3%. The “OS, median” value ([6]; TMB High, PD-L1 1%) was 10.60 months, the “PFS, median” value ([6]; TMB High, PD-L1 1%) was 3.52 month and the ORR ([6]; TMB High, PD-L1 <1%) was 30.4%. For the same substance, the “PFS, median” value ([6]; TMB High, PD-L1 <1%) was 3.02 month, the ORR ([6]; TMB Low) was 10.9% and the “OS, median” value ([6]; TMB Low) was 5.72 months. The “PFS, median” value ([6]; TMB Low) was 1.91 month, the ORR ([6]; TMB Low, PD-L1 1%) was 23.8% and the “OS, median” value ([6]; TMB Low, PD-L1 1%) was 8.57 months. The “PFS, median” value ([6]; TMB Low, PD-L1 1%) was 3.12 month, the ORR ([6]; TMB Low, PD-L1 <1%) was 0% and the “OS, median” value ([6]; TMB Low, PD-L1 <1%) was 4.96 months. For the same substance, the “PFS, median” value ([6]; TMB Low, PD-L1 <1%) was 1.77 month, the ORR ([6]; TMB Medium) was 17.4% and the “OS, median” value ([6]; TMB Medium) was 9.66 months. For the same substance, the “PFS, median” value ([6]; TMB Medium) was 1.87 month, the ORR ([6]; TMB Medium, PD-L1 1%) was 12.0% and the “OS, median” value ([6]; TMB Medium, PD-L1 1%) was 11.30 months. For the same substance, the “PFS, median” value ([6]; TMB Medium, PD-L1 1%) was 1.94 month, the ORR ([6]; TMB Medium, PD-L1 <1%) was 23.8% and the “OS, median” value ([6]; TMB Medium, PD-L1 <1%) was 4.53 months. For the same substance, the “PFS, median” value ([6]; TMB Medium, PD-L1 <1%) was 1.77 month, the “OS, median” value ([6]; TMB Subgroup) was 7.23 months and the “PFS, median” value ([6]; TMB Subgroup) was 2.00 month. For the same substance, the ORR ([6]; TMB Subgroup (N 139)) was 20.1%, the ORR ([6]; TMB Subgroup, PD-L1 1%) was 22.9% and the “OS, median” value ([6]; TMB Subgroup, PD-L1 1%) was 10.28 months. For the same substance, the “PFS, median” value ([6]; TMB Subgroup, PD-L1 1%) was 2.30 month, the ORR ([6]; TMB Subgroup, PD-L1 <1%) was 17.4% and the “OS, median” value ([6]; TMB Subgroup, PD-L1 <1%) was 5.68 months. The “PFS, median” value ([6]; TMB Subgroup, PD-L1 <1%) was 1.87 month, the “Treatment-related adverse events: Any event” value ([7]; Grade 3-4) was 47 (17.6) n (%) and the “Not continuing in the treatment period: Study drug toxicity” value ([7]; in vivo) was 27 (10.1) n (%). The “Treatment-related AEs leading to discontinuation of study drug” value ([7]; in vivo) was 9.7%, the “Treatment-related adverse events leading to discontinuation: Adrenal insufficiency” value ([7]; in vivo) was 1 (0.4) n (%) and the “Treatment-related adverse events leading to discontinuation: Alanine aminotransferase increased” value ([7]; in vivo) was 5 (1.9) n (%). The “Treatment-related adverse events leading to discontinuation: Aphasia” value ([7]; in vivo) was 1 (0.4) n (%), the “Treatment-related adverse events leading to discontinuation: Aspartate aminotransferase increased” value ([7]; in vivo) was 5 (1.9) n (%) and the “Treatment-related adverse events leading to discontinuation: Cholestasis” value ([7]; in vivo) was 1 (0.4) n (%). For the same substance, the “Treatment-related adverse events leading to discontinuation: Colitis” value ([7]; in vivo) was 2 (0.7) n (%), the “Treatment-related adverse events leading to discontinuation: Confused state” value ([7]; in vivo) was 1 (0.4) n (%) and the “Treatment-related adverse events leading to discontinuation: Hypersensitivity” value ([7]; in vivo) was 1 (0.4) n (%). For the same substance, the “Treatment-related adverse events leading to discontinuation: Interstitial lung disease” value ([7]; in vivo) was 1 (0.4) n (%), the “Treatment-related adverse events leading to discontinuation: Multiple organ dysfunction” value ([7]; in vivo) was 1 (0.4) n (%) and the “Treatment-related adverse events leading to discontinuation: Nausea” value ([7]; in vivo) was 1 (0.4) n (%). For the same substance, the “Treatment-related adverse events leading to discontinuation: Pericardial effusion malignant” value ([7]; in vivo) was 1 (0.4) n (%), the “Treatment-related adverse events leading to discontinuation: Pneumonitis” value ([7]; in vivo) was 3 (1.1) n (%) and the “Treatment-related adverse events leading to discontinuation: Rash” value ([7]; in vivo) was 1 (0.4) n (%). For the same substance, the “Treatment-related adverse events leading to discontinuation: Rash maculopapular” value ([7]; in vivo) was 1 (0.4) n (%), the “Treatment-related adverse events leading to discontinuation: Rash papular” value ([7]; in vivo) was 1 (0.4) n (%) and the “Treatment-related adverse events leading to discontinuation: Stevens-Johnson syndrome” value ([7]; in vivo) was 1 (0.4) n (%). The “Treatment-related adverse events leading to discontinuation: Transaminases increased” value ([7]; in vivo) was 1 (0.4) n (%), the “Treatment-related adverse events: Any event” value ([7]; in vivo) was 190 (71.2) n (%) and the “Treatment-related adverse events: Leukopenia” value ([7]; in vivo) was 0 n (%). The “Treatment-related adverse events: Neutropenia” value ([7]; in vivo) was 0 n (%), the “Treatment-related adverse events: Neutrophil count decreased” value ([7]; in vivo) was 1 (0.4) n (%) and the “Treatment-related serious adverse events: Anemia” value ([7]; in vivo) was 0 n (%). The “Treatment-related serious adverse events: Aspartate aminotransferase increased” value ([7]; in vivo) was 6 (2.2) n (%), the “Treatment-related serious adverse events: Febrile neutropenia” value ([7]; in vivo) was 0 n (%) and the “Treatment-related serious adverse events: Thrombocytopenia” value ([7]; in vivo) was 0 n (%).
